# Experimental data published in ChEMBL document CHEMBL4627342, “Novel pyridone EP4 agonists featuring allylic alcohol ω-chains” (Bioorg Med Chem Lett, 2020).
# Columns and labels:
# Assay type in all cases: functional, cell-based
# [1] = target: T1, Prostaglandin E2 receptor EP1 subtype (Homo sapiens, UniProt P34995); experiment: Agonist activity at human EP1 receptor expressed in HEK293 cells by calcium-5 dye based FLIPR assay
# T1 sequence (P34995 whole entry): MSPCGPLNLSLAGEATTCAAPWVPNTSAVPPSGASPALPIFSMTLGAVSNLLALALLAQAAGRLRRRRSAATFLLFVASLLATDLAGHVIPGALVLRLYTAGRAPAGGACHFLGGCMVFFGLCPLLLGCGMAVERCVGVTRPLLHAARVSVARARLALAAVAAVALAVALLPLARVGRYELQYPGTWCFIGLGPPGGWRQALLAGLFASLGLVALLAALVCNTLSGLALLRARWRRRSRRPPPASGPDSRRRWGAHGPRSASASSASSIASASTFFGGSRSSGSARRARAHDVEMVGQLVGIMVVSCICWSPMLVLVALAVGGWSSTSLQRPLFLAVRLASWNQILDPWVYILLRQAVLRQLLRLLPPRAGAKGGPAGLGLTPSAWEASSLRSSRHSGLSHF
# [2] = target: T2, Prostaglandin E2 receptor EP3 subtype (Homo sapiens, UniProt P43115); experiment: Agonist activity at human EP3 receptor expressed in HEK293 cells by calcium-5 dye based FLIPR assay
# T2 sequence (P43115 whole entry): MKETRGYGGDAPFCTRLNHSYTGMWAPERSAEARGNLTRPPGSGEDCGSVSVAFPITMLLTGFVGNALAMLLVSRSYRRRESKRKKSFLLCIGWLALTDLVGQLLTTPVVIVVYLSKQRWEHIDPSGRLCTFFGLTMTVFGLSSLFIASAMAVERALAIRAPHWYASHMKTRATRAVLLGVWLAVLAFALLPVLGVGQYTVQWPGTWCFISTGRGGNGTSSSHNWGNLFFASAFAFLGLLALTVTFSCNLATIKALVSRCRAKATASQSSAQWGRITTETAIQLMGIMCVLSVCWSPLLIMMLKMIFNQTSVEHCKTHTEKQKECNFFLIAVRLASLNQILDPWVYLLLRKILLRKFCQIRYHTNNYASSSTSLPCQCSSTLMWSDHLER
# [3] = target: T3, Prostaglandin E2 receptor EP4 subtype (Homo sapiens, UniProt P35408); experiment: Agonist activity at human EP4 receptor expressed in HEK293 cells by calcium-5 dye based FLIPR assay relative to control
# [4] = target: T3, Prostaglandin E2 receptor EP4 subtype; experiment: Agonist activity at human EP4 receptor expressed in HEK293 cells by calcium-5 dye based FLIPR assay
# [5] = target: Prostaglandin E2 receptor EP2 subtype (Homo sapiens, UniProt P43116); experiment: Agonist activity at human EP2 receptor expressed in HEK293 cells by calcium-5 dye based FLIPR assay
# Prostaglandin E2 receptor EP2 subtype, sequence (P43116 whole entry): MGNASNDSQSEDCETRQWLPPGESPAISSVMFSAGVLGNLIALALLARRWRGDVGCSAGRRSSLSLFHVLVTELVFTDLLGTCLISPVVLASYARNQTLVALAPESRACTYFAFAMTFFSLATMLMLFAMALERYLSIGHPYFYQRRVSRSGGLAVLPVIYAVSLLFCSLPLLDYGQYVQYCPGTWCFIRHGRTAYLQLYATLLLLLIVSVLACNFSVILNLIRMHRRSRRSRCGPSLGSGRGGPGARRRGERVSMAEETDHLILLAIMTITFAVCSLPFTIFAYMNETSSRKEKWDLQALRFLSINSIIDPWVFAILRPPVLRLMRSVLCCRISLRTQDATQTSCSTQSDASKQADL
# T3 sequence (P35408 whole entry): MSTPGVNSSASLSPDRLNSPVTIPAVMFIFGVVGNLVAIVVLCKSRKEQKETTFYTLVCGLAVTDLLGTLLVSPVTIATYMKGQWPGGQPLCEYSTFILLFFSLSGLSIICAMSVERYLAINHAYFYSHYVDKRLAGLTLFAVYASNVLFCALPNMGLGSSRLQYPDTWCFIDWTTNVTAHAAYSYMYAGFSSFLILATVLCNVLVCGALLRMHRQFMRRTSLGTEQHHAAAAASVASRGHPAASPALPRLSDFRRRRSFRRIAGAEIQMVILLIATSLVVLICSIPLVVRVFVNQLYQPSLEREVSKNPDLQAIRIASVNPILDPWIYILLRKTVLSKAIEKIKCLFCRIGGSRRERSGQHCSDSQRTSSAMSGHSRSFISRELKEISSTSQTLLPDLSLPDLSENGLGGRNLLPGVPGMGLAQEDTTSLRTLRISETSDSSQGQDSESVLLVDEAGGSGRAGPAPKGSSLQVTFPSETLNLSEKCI
SMILES,EC50 [1] [nM],EC50 [2] [nM],Emax [3] [%],EC50 [4] [nM],EC50 [5] [nM]
CCCCCC(O)CCc1cccc(=O)n1CCCCCCC(=O)O (centres undefined),2350,2700,103,550,> 10000
CCCCCC(O)/C=C/c1c(Cl)cc(Cl)c(=O)n1CCc1ccc(C(=O)O)cc1 (racemic) [listing 1 of 2 here],> 10000,> 10000,–,7,> 10000
"CCCCCC(O)/C=C/c1c(Cl)cc(Cl)c(=O)n1CCc1ccc(C(=O)O)cc1 (single isomer, unassigned; ent-9) [listing 1 of 2 here]",–,–,–,60,–
CCCCCC(O)/C=C/c1c(Cl)cc(Cl)c(=O)n1CCc1ccc(C(=O)O)cc1 (stereo in doubt; 9) [listing 2 of 2 here],–,–,–,13,–
"CCCCCC(O)/C=C/c1c(Cl)cc(Cl)c(=O)n1CCc1ccc(C(=O)O)cc1 (single isomer, unassigned; ent-9) [listing 2 of 2 here]",–,–,136,–,–

# Second part, the compound after the results:
EC50 [1] [nM],EC50 [2] [nM],Emax [3] [%],EC50 [4] [nM],EC50 [5] [nM],SMILES
–,–,146,–,–,CCCCCC(O)/C=C/c1c(Cl)cc(Cl)c(=O)n1CCc1ccc(C(=O)O)cc1 (stereo in doubt; 9) [listing 1 of 2 here]
> 10000,> 10000,139,29,4700,CCCCCC(C)(O)/C=C/c1c(Cl)cc(Cl)c(=O)n1CCc1ccc(C(=O)O)cc1 (centres undefined)
> 10000,> 10000,123,160,> 10000,CCCCCC(O)/C=C/c1c(Cl)cc(Cl)c(=O)n1CCCCCCC(=O)O (centres undefined)
> 10000,> 10000,99,360,> 10000,CCCCCC(O)/C=C/c1c(Br)cc(Br)c(=O)n1CCCCCCC(=O)O (centres undefined)
–,–,129,–,–,CCCCCC(O)/C=C/c1c(Cl)cc(Cl)c(=O)n1CCc1ccc(C(=O)O)cc1 (racemic) [listing 2 of 2 here]
> 10000,> 10000,138,4.9,1500,CCCCCC(O)CCc1c(Cl)cc(Cl)c(=O)n1CCc1ccc(C(=O)O)cc1 (centres undefined)
